Patent US11718622B2, “Heterocyclic adenosine receptor antagonists” (Exelixis, Inc., priority 2020, dated 2023)
pIC50: −log10 of the molar value.

Key:
[1] = target: Adenosine A2a (ADORA2A) receptor (Homo sapiens (Human), UniProt P29274); experiment: ADORA2A Receptor Binding Assay; conditions: radioligand binding, membrane stock
Procedure, shortened: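 Test compounds incubated with A2a receptor membranes and a ³H-labelled radioligand for 2 hours at room temperature, then filtered through PEI-presoaked GF/C plates and washed. Filter-bound ³H counted by scintillation; % inhibition calculated from background-subtracted signal relative to high control.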

[2] = target: Adenosine A2B (ADORA2B) receptor (Homo sapiens (Human), UniProt P29275); experiment: ADORA2B Receptor Binding Assay; conditions: radioligand binding, membrane stock
Procedure, shortened: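 Radioligand competition binding on human A2B receptor membranes, 1 h at room temperature, then filtration through BSA-presoaked GF/C filters and ³H counting by scintillation. Inhibition expressed as % of high control after background subtraction.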

Sequence of Adenosine A2B (ADORA2B) receptor (P29275 whole entry): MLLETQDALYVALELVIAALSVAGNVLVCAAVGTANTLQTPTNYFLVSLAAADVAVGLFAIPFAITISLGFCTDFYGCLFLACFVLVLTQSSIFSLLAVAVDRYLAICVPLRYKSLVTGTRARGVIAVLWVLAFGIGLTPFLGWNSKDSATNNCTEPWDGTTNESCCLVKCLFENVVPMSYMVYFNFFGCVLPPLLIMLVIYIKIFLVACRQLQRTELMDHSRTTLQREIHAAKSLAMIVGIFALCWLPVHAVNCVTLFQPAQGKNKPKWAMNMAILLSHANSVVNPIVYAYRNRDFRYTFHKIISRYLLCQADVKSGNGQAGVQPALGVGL
Sequence of Adenosine A2a (ADORA2A) receptor (P29274 whole entry): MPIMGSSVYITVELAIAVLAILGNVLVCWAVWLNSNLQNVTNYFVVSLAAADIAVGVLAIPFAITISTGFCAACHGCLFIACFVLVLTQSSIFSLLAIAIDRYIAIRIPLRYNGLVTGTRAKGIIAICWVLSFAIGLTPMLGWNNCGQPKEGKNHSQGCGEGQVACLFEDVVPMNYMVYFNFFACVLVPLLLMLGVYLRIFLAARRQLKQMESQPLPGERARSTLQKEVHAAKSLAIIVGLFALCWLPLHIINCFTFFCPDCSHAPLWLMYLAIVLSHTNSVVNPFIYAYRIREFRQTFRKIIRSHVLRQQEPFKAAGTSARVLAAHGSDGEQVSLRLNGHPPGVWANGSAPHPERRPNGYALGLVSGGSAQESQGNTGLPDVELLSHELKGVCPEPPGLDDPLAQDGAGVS

| SMILES | pIC50 [1] | pIC50 [2] |
| --- | --- | --- |
| Cc1nc2c(-c3ccc(C)o3)nc(NC(=O)C3CC3)cn2n1 [Compound 169, N-[2-methyl-8-(5-methlfuran-2-yl)-[1,2,4]triazolo[1,5-a]pyrazin-6-yl]cyclopropanecarboxamide] | > 8.00 | > 8.00 |
| Cc1nc2c3cccnc3nc(-c3ccc(C)o3)n2n1 [Compound 136, 4-methyl-7-(5-methylfuran-2-yl)-3,5,6,8,10-pentazatricyclo[7.4.0.0^2,6]trideca-1(9),2,4,7,10,12-hexaene] | < 6.00 | < 6.00 |
| CC(=O)Nc1cc2nc(C)nn2c(-c2ccc(S(=O)(=O)N(C)C)cc2)n1 [Compound 117, N-[5-[4-(dimethylsulfamoyl)phenyl]-2-methyl-[1,2,4]triazolo[1,5-c]pyrimidin-7-yl]acetamide] | < 6.00 | < 6.00 |
| CNc1nc(-c2ccc(C)o2)n2nc(C)nc2c1Cl [Compound 23, 8-chloro-N,2-dimethyl-5-(5-methylfuran-2-yl)-[1,2,4]triazolo[1,5-c]pyrimidin-7-amine] | 6.00 to 7.00 | < 6.00 |
| Cc1nc2c(Br)c(N)nc(-c3ccc(F)cc3)n2n1 [Compound 83, 8-bromo-5-(4-fluorophenyl)-2-methyl-[1,2,4]triazolo[1,5-c]pyrimidin-7-amine] | 7.00 to 8.00 | 6.00 to 7.00 |
| Cc1nc2cc(N)nc(-c3ccc(S(=O)(=O)N(C)C)cc3)n2n1 [Compound 119, 4-(7-amino-2-methyl-[1,2,4]triazolo[1,5-c]pyrimidin-5-yl)-N,N-dimethylbenzenesulfonamide] | < 6.00 | < 6.00 |
| COc1ccc(-c2nc(N)cc3nc(C)nn23)cc1 [Compound 115, 5-(4-methoxyphenyl)-2-methyl-[1,2,4]triazolo[1,5-c]pyrimidin-7-amine] | 6.00 to 7.00 | < 6.00 |

Next, values leading:

| pIC50 [1] | pIC50 [2] | SMILES |
| --- | --- | --- |
| > 8.00 | 7.00 to 8.00 | Cc1nc2cc(NC(=O)C3COC3)nc(-c3ccc(C)o3)n2n1 [Compound 60, N-[2-methyl-5-(5-methylfuran-2-yl)-[1,2,4]triazolo[1,5-c]pyrimidin-7-yl]oxetane-3-carboxamide] |
| > 8.00 | 7.00 to 8.00 | Cc1cn2cc(NC(=O)C(F)F)nc(-c3ccco3)c2n1 [Compound 221, 2,2-difluoro-N-[8-(furan-2-yl)-2-methylimidazo[1,2-a]pyrazin-6-yl]acetamide] |
| > 8.00 | > 8.00 | CC(=O)Nc1cc2nc(C(C)C)nn2c(-c2ccc(C)o2)n1 [Compound 34, N-[5-(5-methylfuran-2-yl)-2-propan-2-yl-[1,2,4]triazolo[1,5-c]pyrimidin-7-yl]acetamide] |
| 7.00 to 8.00 | 6.00 to 7.00 | CCOC(=O)Nc1cn2cc(C)nc2c(-c2ccco2)n1 [Compound 219, ethyl N-[8-(furan-2-yl)-2-methylimidazo[1,2-a]pyrazin-6-yl]carbamate] |
| > 8.00 | 7.00 to 8.00 | Cc1ccc(-c2nc3[nH]ncc3c3nc(C(C)C)nn23)o1 [Compound 121, 7-(5-methylfuran-2-yl)-4-propan-2-yl-3,5,6,8,10,11-hexazatricyclo[7.3.0.0^2,6]dodeca-1(9),2,4,7,11-pentaene] |
| > 8.00 | 7.00 to 8.00 | Cc1ccc(-c2nc3[nH]ncc3c3nc(C(F)(F)F)nn23)o1 [Compound 153, 7-(5-methylfuran-2-yl)-4-(trifluoromethyl)-3,5,6,8,10,11-hexazatricyclo[7.3.0.0^2,6]dodeca-1(9),2,4,7,11-pentaene] |
| > 8.00 | > 8.00 | Cc1nc2c(-c3ccccc3)nc(N)c(Cl)n2n1 [Compound 176, 5-chloro-2-methyl-8-phenyl-[1,2,4]triazolo[1,5-a]pyrazin-6-amine] |
